The source of these data is patent US6569893B2, “Amino acid derivatives of triptolide compounds as immune modulators and anticancer agents” (Pharmagenesis, Inc., priority 2001, dated 2003).

Assay [1] deals with Jurkat human T lymphocyte cell line. The assay is described as follows: Annexin V apoptosis assay after incubation of compound with human serum. It is filed as cell-based. As for the experimental part:
(§1) Several compounds of formula I were prepared, as described in the Examples. In preliminary assays, the compounds were evaluated for their capacity to induce apoptosis in cells from the Jurkat human T lymphocyte cell line, after incubation with pooled human serum for 48 hrs at 37° C. (see Example 7). One of the compounds was also analyzed for its capacity to inhibit IL-2 production in Jurkat human T lymphocyte cells (see Example 8). Controls consisted of the compounds incubated in complete tissue culture medium (RPMI 1640 medium plus 5% heat-inactivated fetal calf serum, 1% HEPES, 1% pen/strep, 1% glutamine) rather than human serum.
(§2) The ED50/IC50 values (column 3) are calculated directly from the data in each experiment, and the % conversion values (column 4) are calculated as percent of the ED50 or IC50 value produced by triptolide, incubated in the same plasma (i.e. in the same experiment).
(§3) Pooled human serum was stored in aliquots at −80° C. […]
Test samples (incubated in human serum as described in section A) were prepared and diluted as described in section B, and Jurkat human T lymphocyte cells were prepared and added to wells containing 100 μl of the diluted compounds, also as described in section B. The plates were incubated at 37° C. in a 5% CO2 incubator. […] Cells positive for Annexin V binding were considered to be apoptotic, and the data were calculated as percent apoptotic cells. […]

In assay [2] the test system is IL-2 production in Jurkat human T lymphocyte cells. The assay is described as follows: IL-2 production (inhibition) assay after incubation of compound with human serum. It is filed as cell-based. On the procedure: as §1, §2, §3
Test samples, incubated in human serum as described in Example 7A, were diluted to 1 mM in complete tissue culture medium. […] The stored supernatants were analyzed for human IL-2 concentration using the Luminex 100 (Luminex Corporation, Austin, Tex.), Luminex microspheres coupled with anti-IL-2 capture antibody, and fluorochrome-coupled anti-IL-2 detection antibody. The data were expressed as ng/ml of IL-2. […]

The test system of assay [3] is Jurkat human T lymphocyte cell line. The assay is described as follows: Terminal deoxynucleotidyl transferase (TdT, TUNEL) apoptosis assay after incubation of compound with human serum. It is filed as cell-based. The note with it: for EC50: Jurkat cells, 24 h, compound pre-incubated 48 hr at 37° C. in pooled human serum, concentration inducing 50% apoptosis, read-out: ED50 (nM) after 48 hr incubation with human serum; for Conversion (relative activity compared to PG490) (%): percent of ED50 relative to triptolide incubated in parallel in human serum (taken as 100%). As for the experimental part:
as §1, §2
Pooled human serum was stored in aliquots at −80° C. Test compounds were added at 20 mM to thawed human serum in 1.5 ml microfuge tubes and incubated at 37° C. in a water bath for 48 hours. The test samples were placed on ice until dilution for the bioassay. Controls consisted of the compounds incubated in complete tissue culture medium (RPMI 1640 medium plus 5% heat-inactivated fetal calf serum, 1% HEPES, 1% pen/strep, 1% glutamine) rather than human serum.
Test samples were diluted to 1 mM in complete tissue culture medium. Aliquots were placed in microculture plates and serial dilutions were prepared so that the final concentration would encompass the range of 2 to 6,000 nM with half-log increments. Cells from an exponentially expanding culture of the Jurkat human T lymphocyte cell line (#TIB-152 obtained from American Type Culture Collection, Manassas, Va.) were harvested, washed once by centrifugation and dilution in complete tissue culture medium, and diluted to a concentration of 1×10^6 cells/ml. A volume of 100 μl of Jurkat cells (1×10^5 cells) was added to wells containing 100 μl of the diluted compounds, and the plates were incubated at 37° C. in a 5% CO2 incubator. After 24 hours, the plates were centrifuged to pellet the cells, and the cells were washed with PBS. The cells were fixed in paraformaldehyde, washed, treated with ethanol, washed and then incubated with the enzyme terminal deoxynucleotidyl transferase (TdT) and fluorescein labeled-deoxyuridine (dUTP). The process allows 3′ end labeling of DNA molecules which were nicked during the DNA fragmentation phase of apoptosis (terminal deoxynucleotidyl transferase dUTP nick end labeling; TUNEL labeling). The cells were washed, treated with ribonuclease, washed and resuspended in medium containing propidium iodide to distinguish intact apoptotic cells. The contents of the assay wells were individually transferred into test tubes, and apoptosis was analyzed using a FACSCalibur flow cytometer (BD Immunocytometry Systems, San Jose, Calif.). Cells positive for Fl-dUTP were considered to be apoptotic, and the data were calculated as percent apoptotic cells.
For the assays in sections B and C, data were plotted as the concentration of compound incubated in serum versus percent apoptotic cells, and the concentration of compound inducing 50% apoptosis (ED50) was calculated from these dose response curves. The percent conversion of the test compounds to bioactive compound (assumed to be triptolide) was calculated in reference to the result with triptolide incubated in parallel in human serum in the same experiment, as the percent of the ED50 of the compound compared to that for triptolide, which was taken as 100%.

For assay [4], the system named is HT-29 human colon cancer cell line tumor xenografts. The note with it: HT-29 xenografts, cited from earlier work.

As to `CC(C)[C@]12O[C@H]1[C@@H]1O[C@]13[C@]1(O[C@H]1C[C@H]1C4=C(CC[C@@]13C)C(=O)OC4)[C@@H]2OC(=O)CC[C@H](N)C(=O)O` [PG661, 14-γ-L-glutamate Ester of Triptolide], the EC50 in assay [1] (Jurkat cells, 24 h, compound pre-incubated 48 hr at 37° C. in pooled human serum, read-out: ED50 (nM) after 48 hr incubation with human serum) amounted to 34700 nM. Further, the “Conversion (relative activity compared to PG490) (%)” value in assay [1] (percent of ED50 relative to triptolide incubated in parallel in human serum (taken as 100%)) came to 0.16%; in assay [2] (IL-2 inhibition assay, percent of IC50 relative to triptolide incubated in parallel (taken as 100%)) it was 1.4%. In addition, in assay [2] (IL-2 inhibition, anti-CD3/PMA-stimulated Jurkat cells, 24 h, compound pre-incubated 48 hr in human serum, 50% decrease in IL-2 concentration), the IC50 is 330 nM.

Take `CC(C)[C@]12O[C@H]1[C@@H]1O[C@]13[C@]1(O[C@H]1C[C@H]1C4=C(CC[C@@]13C)C(=O)OC4)[C@@H]2OC(=O)CC[C@@H](NC(=O)OCc1ccccc1)C(=O)OCc1ccccc1` [PG660, Triptolide 14-α-Benzyl-N-benzyloxycarbonyl-D-glutamate Ester]: the EC50 in assay [3] (Homo sapiens, Jurkat) turned out to be 1100 nM. For the same compound, the “Conversion (relative activity compared to PG490) (%)” value in assay [3] is 2.7%.

For the compound `CC(C)[C@]12O[C@H]1[C@@H]1O[C@]13[C@]1(O[C@H]1C[C@H]1C4=C(CC[C@@]13C)C(=O)OC4)[C@@H]2OC(=O)C(CCC(=O)OCc1ccccc1)NC(=O)OCc1ccccc1` (mixture of isomers) [PG657, Triptolide 14-γ-Benzyl-N-benzyloxycarbonyl-(L)-glutamate Ester, mixture with D-isomer], in assay [3], the EC50 was 300 nM and the “Conversion (relative activity compared to PG490) (%)” value was 10%.

On to `CC(C)[C@]12O[C@H]1[C@@H]1O[C@]13[C@]1(O[C@H]1C[C@H]1C4=C(CC[C@@]13C)C(=O)OC4)[C@@H]2OC(=O)CC[C@H](NC(=O)OC(C)(C)C)C(=O)OC(C)(C)C` [PG658, Triptolide 14-N-t-Butoxycarbonyl-α-t-butyl-L-glutamate Ester], for which, in assay [3] (Homo sapiens, Jurkat), the EC50 was 750 nM. Further, the “Conversion (relative activity compared to PG490) (%)” value in assay [3] stood at 4.0%.

Turning to `CC(C)C12OC1C1OC13C1(C)CCC4=C(COC4=O)C1CC1OC13C2OC(=O)CCC(=O)O` (stereo not drawn) [14-succinate derivative of triptolide], the Tumor regression result in assay [4] was “induced tumor regression”. Further, the Tumor growth inhibition result in assay [4] (in comparison to 5-FU and CPT-11) is “strongly inhibited tumor growth, to a significantly greater degree than 5-FU and CPT-11”.

In general, IC50 refers to the concentration that gives 50% inhibition.
